# Measurements reported in patent US10758534B2 (Vertex Pharmaceuticals Incorporated, priority 2014, dated 2020).
# Molecular target: T1, F508del (Homo sapiens, UniProt P13569, DEL508-508)
# T1 construct: expressed in transfected cells
# Test: Protocol 2: FRET membrane potential optical assay (VIPR), identification of correction compounds
# Format: cell-based
# Settings: F508del CFTR modulator activity; compounds of Table 1
# How it was run: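 NIH3T3 mouse fibroblasts stably expressing F508del were treated with test compound for 16 hrs at 37° C. in serum-free medium; 27° C. incubation served as positive control. F508del was activated with 10 μM forskolin plus 20 μM genistein in Cl^−-free medium, and Cl^− efflux-driven depolarization was read by DiSBAC2(3)/CC2-DMPE FRET.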
# T1 sequence (P13569 with tags, fused parts or gaps DEL508-508): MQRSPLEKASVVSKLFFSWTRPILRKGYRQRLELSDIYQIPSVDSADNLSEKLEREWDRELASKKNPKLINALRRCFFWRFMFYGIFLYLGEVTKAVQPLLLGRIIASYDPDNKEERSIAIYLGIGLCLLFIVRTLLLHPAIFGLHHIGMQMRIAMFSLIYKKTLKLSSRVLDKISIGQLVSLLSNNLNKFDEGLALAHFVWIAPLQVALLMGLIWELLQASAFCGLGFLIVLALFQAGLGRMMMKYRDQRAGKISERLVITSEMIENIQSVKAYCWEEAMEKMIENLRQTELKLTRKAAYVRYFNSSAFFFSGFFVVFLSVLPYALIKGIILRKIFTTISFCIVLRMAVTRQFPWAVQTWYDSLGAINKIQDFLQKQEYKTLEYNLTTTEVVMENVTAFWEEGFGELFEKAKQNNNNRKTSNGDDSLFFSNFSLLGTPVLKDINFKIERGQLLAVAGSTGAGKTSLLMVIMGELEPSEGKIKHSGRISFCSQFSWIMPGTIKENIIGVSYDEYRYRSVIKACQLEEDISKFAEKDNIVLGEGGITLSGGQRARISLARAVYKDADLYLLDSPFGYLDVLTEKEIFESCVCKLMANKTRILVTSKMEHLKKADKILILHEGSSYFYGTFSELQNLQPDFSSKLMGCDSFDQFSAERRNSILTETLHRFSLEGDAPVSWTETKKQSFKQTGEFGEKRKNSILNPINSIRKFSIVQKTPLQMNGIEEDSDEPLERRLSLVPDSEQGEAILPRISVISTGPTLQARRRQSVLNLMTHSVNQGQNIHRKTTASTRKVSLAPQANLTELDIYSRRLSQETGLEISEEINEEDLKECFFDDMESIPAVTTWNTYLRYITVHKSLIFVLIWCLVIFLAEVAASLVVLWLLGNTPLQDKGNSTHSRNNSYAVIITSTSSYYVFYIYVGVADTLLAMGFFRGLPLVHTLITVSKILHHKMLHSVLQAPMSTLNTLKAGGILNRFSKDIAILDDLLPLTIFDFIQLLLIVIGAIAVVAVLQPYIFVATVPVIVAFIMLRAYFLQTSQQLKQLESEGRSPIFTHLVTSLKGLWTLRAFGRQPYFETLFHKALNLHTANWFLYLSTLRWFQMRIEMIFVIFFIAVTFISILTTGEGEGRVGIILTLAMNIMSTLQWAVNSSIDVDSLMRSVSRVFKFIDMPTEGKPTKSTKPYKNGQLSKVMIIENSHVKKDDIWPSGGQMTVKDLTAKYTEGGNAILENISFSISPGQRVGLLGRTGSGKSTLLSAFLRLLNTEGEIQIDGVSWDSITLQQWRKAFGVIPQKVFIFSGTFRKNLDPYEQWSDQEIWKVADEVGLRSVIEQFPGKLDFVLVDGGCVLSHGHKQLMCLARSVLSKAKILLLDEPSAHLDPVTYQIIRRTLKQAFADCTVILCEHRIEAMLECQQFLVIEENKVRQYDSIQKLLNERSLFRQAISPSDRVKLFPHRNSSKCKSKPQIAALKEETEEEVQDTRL
row,SMILES,EC30
1,"CC(C)COc1cc(F)cc(-c2ccc(C(=O)NS(=O)(=O)c3cccc(N)n3)c(N3CCC(C)C(C)C3)n2)c1 (single isomer, unassigned) [Compound 2532, N-[(6-amino-2-pyridyl)sulfonyl]-2-(3,4-dimethyl-1-piperidyl)-6-(3-fluoro-5-isobutoxy-phenyl)pyridine-3-carboxamide]",+++ (“+++” means <3 uM)

# Same assay, conditions: F508del CFTR modulator activity; compounds of Table 1; read-out: EC30
row,SMILES,EC30 [µM]
1,"C[C@@H]1CN(c2nc(-c3ccc(N(C)C)nc3)ccc2C(=O)NS(=O)(=O)c2cccnc2N)C(C)(C)C1 [Compound 2319, N-[(2-amino-3-pyridyl)sulfonyl]-6-[6-(dimethylamino)-3-pyridyl]-2-[(4S)-2,2,4-trimethylpyrrolidin-1-yl]pyridine-3-carboxamide]",3 to 10
2,"C[C@@H]1CN(c2nc(-c3cccc(OC(F)(F)F)c3)ccc2C(=O)NS(=O)(=O)c2cccnc2N)C(C)(C)C1 [Compound 2245, N-[(2-amino-3-pyridyl)sulfonyl]-6-[13-(trifluoromethoxy)phenyl]-2-[(4S)-2,2,4-trimethylpyrrolidin-1-yl]pyridine-3-carboxamide]",< 3
3,"CCCOCCNc1cccc(S(=O)(=O)NC(=O)c2cccnc2N2CC(C)CC2(C)C)n1 (stereo not drawn) [Compound 2602, N—[[6-(2-propoxyethylamino)-2-pyridyl]sulfonyl]-2-(2,2,4-trimethylpyrrolidin-1-yl)pyridine-3-carboxamide]",3 to 10
4,"Cc1cc(-c2ccc(C(=O)NS(=O)(=O)c3cccc(N)n3)c(N3C[C@@H](C)CC3(C)C)n2)cnc1OC(C)C [Compound 2170, N-[(6-amino-2-pyridyl)sulfonyl]-6-(6-isopropoxy-5-methyl-3-pyridyl)-2-[(4S)-2,2,4-trimethylpyrrolidin-1-yl]pyridine-3-carboxamide]",< 3
5,"CC1CN(c2ncccc2C(=O)NS(=O)(=O)c2cccc(N3Cc4ccccc4C[C@H]3C(=O)O)n2)C(C)(C)C1 (stereo partly drawn) [Compound 2321, (3S)-2-[6-[[2-(2,2,4-trimethylpyrrolidin-1-yl)pyridine-3-carbonyl]sulfamoyl]-2-pyridyl]-3,4-dihydro-1H-isoquinoline-3-carboxylic acid]",3 to 10
6,"CC1CN(c2ncc(-c3ccccc3C#N)cc2C(=O)NS(=O)(=O)c2cccc(N)n2)C(C)(C)C1 (stereo not drawn) [Compound 2584, N-[(6-amino-2-pyridyl)sulfonyl]-5-(2-cyanophenyl)-2-(2,2,4-trimethylpyrrolidin-1-yl)pyridine-3-carboxamide]",3 to 10
7,"CC1CN(c2ncccc2C(=O)NS(=O)(=O)c2cccc(OC3CCC3)n2)C(C)(C)C1 (stereo not drawn) [Compound 2371, N—[[6-(cyclobutoxy)-2-pyridyl]sulfonyl]-2-(2,2,4-trimethylpyrrolidin-1-yl)pyridine-3-carboxamide]",< 3
8,"CC1CN(c2ncccc2C(=O)NS(=O)(=O)c2cccc(OCCc3ccsc3)n2)C(C)(C)C1 (stereo not drawn) [Compound 2161, N—[[6-[2-(3-thienyl)ethoxy]-2-pyridyl]sulfonyl]-2-(2,2,4-trimethylpyrrolidin-1-yl)pyridine-3-carboxamide]",< 3
9,"Cc1ccc(F)cc1-c1ccc(C(=O)NS(=O)(=O)c2ccc[nH]c2=O)c(N2C[C@@H](C)CC2(C)C)n1 [Compound 2067, 6-(5-fluoro-2-methyl-phenyl)-N-[(2-oxo-1H-pyridin-3-yl)sulfonyl]-2-[(4S)-2,2,4-trimethylpyrrolidin-1-yl]pyridine-3-carboxamide]",< 3
10,"CC1CN(c2ncccc2C(=O)NS(=O)(=O)c2cccc(Oc3cccc(F)c3)n2)C(C)(C)C1 (stereo not drawn) [Compound 2332, N—[[6-(3-fluorophenoxy)-2-pyridyl]sulfonyl]-2-(2,2,4-trimethylpyrrolidin-1-yl)pyridine-3-carboxamide]",< 3
11,"CC1CN(c2ncccc2C(=O)NS(=O)(=O)c2cccc(Oc3ccc4c(c3)CCCC4=O)n2)C(C)(C)C1 (stereo not drawn) [Compound 2523, N—[[6-(1-oxotetralin-6-yl)oxy-2-pyridyl]sulfonyl]-2-(2,2,4-trimethylpyrrolidin-1-yl)pyridine-3-carboxamide]",3 to 10
12,CC1CN(c2ncccc2C(=O)NS(=O)(=O)c2cccc(Oc3cc(F)cc(Cl)c3)n2)C(C)(C)C1 (stereo not drawn) [Compound 2719],< 3
13,"C[C@@H]1CN(c2nc(-c3cccc(NCC(C)(C)C)n3)ccc2C(=O)NS(=O)(=O)c2cccnc2N)C(C)(C)C1 [Compound 2500, N-[(2-amino-3-pyridyl)sulfonyl]-6-[6-(2,2-dimethylpropylamino)-2-pyridyl]-2-[(4S)-2,2,4-trimethylpyrrolidin-1-yl]pyridine-3-carboxamide]",< 3

# Same assay, conditions: Table 3; compounds of Table 1 as modulators of CFTR activity; protocol not stated
row,SMILES,EC30
1,"Cc1cc(C)c(CN2Cc3ccccc3C2C(=O)NS(=O)(=O)c2cccc(N)n2)c(C)c1 (stereo not drawn) [Compound 73, N-[(6-amino-2-pyridyl)sulfonyl]-2-[(2,4,6-trimethylphenyl)methyl]isoindoline-1-carboxamide]",+++ (“+++” means <3 uM)
2,"Cc1cc(C)c(Oc2nc(-c3ccc(F)cc3O)ccc2C(=O)NS(=O)(=O)c2cccc(N)n2)c(C)c1 [Compound 622, N-[(6-amino-2-pyridyl)sulfonyl]-6-(4-fluoro-2-hydroxy-phenyl)-2-(2,4,6-trimethylphenoxy)pyridine-3-carboxamide]",+++ (“+++” means <3 uM)
3,"Cc1cc(C)c(Cn2c(C(=O)NS(=O)(=O)c3ccnc(N)c3)cc3ccccc32)c(C)c1 [Compound 627, N-[(2-amino-4-pyridyl)sulfonyl]-1-[(2,4,6-trimethylphenyl)methyl]indole-2-carboxamide]",+ (“+” means greater than 10 uM)
4,"Cc1cc(C)c(Oc2nc(-c3cccc(C(F)(F)F)c3)ccc2C(=O)NS(=O)(=O)c2cccc(N)n2)c(C)c1 [Compound 709, N-[(6-amino-2-pyridyl)sulfonyl]-6-[13-(trifluoromethyl)phenyl]-2-(2,4,6-trimethylphenoxy)pyridine-3-carboxamide]",+++ (“+++” means <3 uM)
5,"Cc1cccc(C)c1Cn1nc(-c2cccc(C(F)(F)F)c2)cc1C(=O)NS(=O)(=O)c1ccccc1 [Compound 220, N-(benzenesulfonyl)-2-[(2,6-dimethylphenyl)methyl]-5-[3-(trifluoromethyl)phenyl]pyrazole-3-carboxamide]",+++ (“+++” means <3 uM)
6,"CC(C)Oc1ccc(-c2ccc(C(=O)NS(=O)(=O)c3cccc(N)n3)c(N3CC4C(C3)C4(C)C)n2)cn1 (stereo not drawn) [Compound 596, N-[(6-amino-2-pyridyl)sulfonyl]-2-(6,6-dimethyl-3-azabicyclo[3.1.0]hexan-3-yl)-6-(6-isopropoxy-3-pyridyl)pyridine-3-carboxamide]",++ (“++” means between 3 uM and 10 uM)
7,"Cc1cc(C)c(Oc2nc(NC(C)(C)C)ccc2C(=O)NS(=O)(=O)c2cccc(N)n2)c(C)c1 [Compound 273, N-[(6-Amino-2-pyridyl)sulfonyl]-6-(tert-butylamino)-2-(2,4,6-trimethylphenoxy)pyridine-3-carboxamide]",+++ (“+++” means <3 uM)
8,"CC(C)COc1cc(F)cc(-c2ccc(C(=O)NS(=O)(=O)c3cccc(N)n3)c(N3CCC[C@@H](c4ccccc4)C3)n2)c1 [Compound 684, N-[(6-amino-2-pyridyl)sulfonyl]-6-(3-fluoro-5-isobutoxy-phenyl)-2-[(3S)-3-phenyl-1-piperidyl]pyridine-3-carboxamide]",+++ (“+++” means <3 uM)
9,"Cc1cc(C)c(Cn2c(C(=O)NS(=O)(=O)c3ccc(N)cc3)cc3ccccc32)c(C)c1 [Compound 134, N-(4-aminophenyl)sulfonyl-1-[(2,4,6-trimethylphenyl)methyl]indole-2-carboxamide]",+++ (“+++” means <3 uM)
10,"Cc1cc(C)c(Cn2c(C(=O)NS(=O)(=O)c3ccccc3)c(C)c3ccccc32)c(C)c1 [Compound 232, N-(benzenesulfonyl)-3-methyl-1-[(2,4,6-trimethylphenyl)methyl]indole-2-carboxamide]",+++ (“+++” means <3 uM)
11,"CC(C)COc1cc(F)cc(-c2ccc(C(=O)NS(=O)(=O)c3cccc(N)n3)c(N3CC(C)CC(C)(C)C3)n2)c1 (stereo not drawn) [Compound 560, N-[(6-amino-2-pyridyl)sulfonyl]-6-(3-fluoro-5-isobutoxy-phenyl)-2-(3,3,5-trimethyl-1-piperidyl)pyridine-3-carboxamide]",+++ (“+++” means <3 uM)
12,"Cc1cc(C)c(Oc2cc(C(C)(C)C)ccc2C(=O)NS(=O)(=O)c2cccc(N)n2)c(C)c1 [Compound 102, N-[(6-amino-2-pyridyl)sulfonyl]-4-tert-butyl-2-(2,4,6-trimethylphenoxy)benzamide]",+++ (“+++” means <3 uM)
13,"Cc1cc(C)c(Oc2nc(-c3c(C)cccc3C)ccc2C(=O)NS(=O)(=O)c2cccc(N)n2)c(C)c1 [Compound 97, N-[(6-amino-2-pyridyl)sulfonyl]-6-(2,6-dimethylphenyl)-2-(2,4,6-trimethylphenoxy)pyridine-3-carboxamide]",+++ (“+++” means <3 uM)
14,"CC(C)COc1cc(F)cc(-c2ccc(C(=O)NS(=O)(=O)c3ccn[nH]3)c(N3CCC(C(C)C)CC3)n2)c1 [Compound 553, 6-(3-fluoro-5-isobutoxy-phenyl)-2-(4-isopropyl-1-piperidyl)-N-(1H-pyrazol-5-ylsulfonyl)pyridine-3-carboxamide]",+++ (“+++” means <3 uM)
15,"Cc1cccc(C)c1Cn1c(C(=O)NS(=O)(=O)c2cccc(N)c2)cc2ccccc21 [Compound 331, N-(3-aminophenyl)sulfonyl-1-[(2,6-dimethylphenyl)methyl]indole-2-carboxamide]",+++ (“+++” means <3 uM)
16,"Cc1cc(C)c(Oc2nc(-c3cc(F)cc(OCC(C)C)c3)ccc2C(=O)NS(=O)(=O)c2ccc[nH]c2=O)c(C)c1 [Compound 169, 6-(3-fluoro-5-isobutoxy-phenyl)-N-[(2-oxo-1H-pyridin-3-yl)sulfonyl]-2-(2,4,6-trimethylphenoxy)pyridine-3-carboxamide]",+++ (“+++” means <3 uM)
